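Here, GI50 denotes the concentration required for 50% inhibition of growth. TGI marks complete inhibition of growth.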
Experiments:
Assay in all cases: NCI-60 cell line screen, 384-well format
[1] = tested on: BT-549 breast
[2] = tested on: HCT-116 colon
[3] = tested on: HT29 colon
[4] = tested on: IGROV1 ovarian
[5] = tested on: K-562 leukemia
[6] = tested on: MCF7 breast
[7] = tested on: MDA-MB-435 melanoma
[8] = tested on: OVCAR-4 ovarian
[9] = tested on: PC-3 prostate
[10] = tested on: SF-539 CNS
[11] = tested on: SNB-75 CNS
[12] = tested on: SW-620 colon
[13] = tested on: TK-10 renal

O=C(Nc1cccc(NS(=O)(=O)c2ccc(F)cc2)c1)c1ccc(-c2ccccc2)cc1
GI50 [1]: 2.89 µM
TGI [1]: 8.64 µM
GI50 [2]: 3.54 µM
TGI [2]: 12.6 µM
GI50 [3]: 4.49 µM
TGI [3]: 21.5 µM
GI50 [4]: 10.4 µM
TGI [4]: 37.1 µM
GI50 [5]: 2.6 µM
TGI [5]: 11.2 µM
GI50 [6]: 4.23 µM
TGI [6]: 14.4 µM
GI50 [7]: 4.59 µM
TGI [7]: 17.1 µM
GI50 [8]: 3.85 µM
TGI [8]: 18.2 µM
GI50 [9]: 3.36 µM
TGI [9]: 11.5 µM
GI50 [10]: 3.17 µM
TGI [10]: 11.1 µM
GI50 [11]: 5.65 µM
TGI [11]: 25.1 µM
GI50 [12]: 4.54 µM
TGI [12]: 16.2 µM
GI50 [13]: 4.17 µM
TGI [13]: 19.2 µM

From PubChem BioAssay (NCI)
